Results from PubChem BioAssay (NCI).
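A five-concentration, 48-hour dose response in 96-well plates underlies each endpoint, interpolated linearly between surrounding concentrations. TGI marks complete inhibition of growth.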

Legend:
Experiment in all cases: inhibition of tumour cell growth, NCI panel, 48 h
[1] = tested on: 786-0 renal
[2] = tested on: A498 renal
[3] = tested on: A549 NSCLC
[4] = tested on: ACHN renal
[5] = tested on: CCRF-CEM leukemia
[6] = tested on: COLO 205 colon
[7] = tested on: DLD-1 colon
[8] = tested on: DMS 114 small cell lung
[9] = tested on: DMS 273 small cell lung
[10] = tested on: EKVX NSCLC
[11] = tested on: HCC-2998 colon
[12] = tested on: HCT-116 colon
[13] = tested on: HCT-15 colon
[14] = tested on: HL-60(TB) leukemia
[15] = tested on: HOP-92 NSCLC
[16] = tested on: HT29 colon
[17] = tested on: IGROV1 ovarian
[18] = tested on: K-562 leukemia
[19] = tested on: KM12 colon
[20] = tested on: LOX IMVI melanoma
[21] = tested on: LXFL 529 NSCLC
[22] = tested on: M14 melanoma
[23] = tested on: M19-MEL melanoma
[24] = tested on: MALME-3M melanoma
[25] = tested on: MOLT-4 leukemia
[26] = tested on: NCI-H226 lung
[27] = tested on: NCI-H23 lung
[28] = tested on: NCI-H460 lung
[29] = tested on: NCI-H522 lung
[30] = tested on: OVCAR-3 ovarian
[31] = tested on: OVCAR-4 ovarian
[32] = tested on: OVCAR-5 ovarian
[33] = tested on: OVCAR-8 ovarian
[34] = tested on: RPMI-8226 leukemia
[35] = tested on: RXF 393 renal
[36] = tested on: SF-268 CNS
[37] = tested on: SF-295 CNS
[38] = tested on: SF-539 CNS
[39] = tested on: SK-MEL-2 melanoma
[40] = tested on: SK-MEL-28 melanoma
[41] = tested on: SK-MEL-5 melanoma
[42] = tested on: SK-OV-3 ovarian
[43] = tested on: SN12C renal
[44] = tested on: SNB-19 CNS
[45] = tested on: SNB-75 CNS
[46] = tested on: SNB-78 CNS
[47] = tested on: SR leukemia
[48] = tested on: SW-620 colon
[49] = tested on: TK-10 renal
[50] = tested on: U251 CNS
[51] = tested on: UACC-257 melanoma
[52] = tested on: UACC-62 melanoma
[53] = tested on: UO-31 renal
[54] = tested on: XF 498 CNS
[55] = tested on: CAKI-1 renal
[56] = tested on: HOP-62 NSCLC

CCOC(=O)c1oc2c(OC)cc(Cl)c3c2c1CCC3
TGI [1]: > 100 µM
TGI [2]: > 100 µM
TGI [3]: > 100 µM
TGI [4]: > 100 µM
TGI [5]: > 100 µM
TGI [6]: > 100 µM
TGI [7]: > 100 µM
TGI [8]: > 100 µM
TGI [9]: > 100 µM
TGI [10]: > 100 µM
TGI [11]: > 100 µM
TGI [12]: > 100 µM
TGI [13]: > 100 µM
TGI [14]: > 100 µM
TGI [15]: 63.8 µM
TGI [16]: > 100 µM
TGI [17]: > 100 µM
TGI [18]: > 100 µM
TGI [19]: > 100 µM
TGI [20]: > 100 µM
TGI [21]: > 100 µM
TGI [22]: > 100 µM
TGI [23]: > 100 µM
TGI [24]: > 100 µM
TGI [25]: > 100 µM
TGI [26]: 73.3 µM
TGI [27]: > 100 µM
TGI [28]: > 100 µM
TGI [29]: > 100 µM
TGI [30]: 28.3 µM
TGI [31]: > 100 µM
TGI [32]: > 100 µM
TGI [33]: > 100 µM
TGI [34]: > 100 µM
TGI [35]: 65.3 µM
TGI [36]: > 100 µM
TGI [37]: > 100 µM
TGI [38]: > 100 µM
TGI [39]: > 100 µM
TGI [40]: > 100 µM
TGI [41]: > 100 µM
TGI [42]: > 100 µM
TGI [43]: > 100 µM
TGI [44]: 97.6 µM
TGI [45]: 76.5 µM
TGI [46]: > 100 µM
TGI [47]: > 100 µM
TGI [48]: > 100 µM
TGI [49]: 79.3 µM
TGI [50]: > 100 µM
TGI [51]: > 100 µM
TGI [52]: > 100 µM
TGI [53]: 65.1 µM
TGI [54]: 80.6 µM

CCOC(=O)Cn1c(=O)n(C)c(=O)c2[nH]cnc21
TGI [1]: > 100 µM
TGI [2]: > 100 µM
TGI [3]: > 100 µM
TGI [4]: > 100 µM
TGI [55]: > 100 µM
TGI [5]: > 100 µM
TGI [6]: > 100 µM
TGI [7]: > 100 µM
TGI [8]: > 100 µM
TGI [9]: > 100 µM
TGI [10]: > 100 µM
TGI [12]: > 100 µM
TGI [13]: > 100 µM
TGI [56]: > 100 µM
TGI [15]: > 100 µM
TGI [16]: > 100 µM
TGI [17]: > 100 µM
TGI [18]: > 100 µM
TGI [19]: > 100 µM
TGI [21]: > 100 µM
TGI [22]: > 100 µM
TGI [23]: > 100 µM
TGI [24]: > 100 µM
TGI [25]: > 100 µM
TGI [27]: > 100 µM
TGI [28]: > 100 µM
TGI [29]: > 100 µM
TGI [30]: > 100 µM
TGI [33]: > 100 µM
TGI [34]: > 100 µM
TGI [36]: > 100 µM
TGI [38]: > 100 µM
TGI [39]: > 100 µM
TGI [40]: > 100 µM
TGI [41]: > 100 µM
TGI [42]: > 100 µM
TGI [43]: > 100 µM
TGI [44]: > 100 µM
TGI [45]: > 100 µM
TGI [46]: > 100 µM
TGI [47]: > 100 µM
TGI [48]: > 100 µM
TGI [49]: > 100 µM
TGI [50]: > 100 µM
TGI [52]: > 100 µM
TGI [53]: > 100 µM
TGI [54]: > 100 µM
